Test [1] has as its system HEPG2 (hepatocellular carcinoma). The experiment in a line: MTT cell viability assay, HEPG2. The test is classed as cell-based, human. (In general: Tetrazolium assays rely on reduction of a dye to a coloured formazan, in cell work by metabolically active cells.)
Method: (§1) HEPG2 (ATCC-HB-8065), MCF-7 (ATCC-CRL-3435), PC-3 (ATCC-CRL-1435), and HEK-293 (ATCC-CRL-1573) cells were purchased from American Type Culture Collection (ATCC). Human cancer cells and embryonic kidney cells were maintained in Roswell Park Memorial Institute (RPMI) media supplemented with 10% fetal bovine serum and 1% penicillin–streptomycin solution in a 37 °C incubator with 5% CO2.
(§2) The cell viability was assessed by using an MTT assay. MTT was purchased from Sigma and prepared in phosphate-buffered saline (5 mM). […] After incubation, 20 μL of MTT solution was added to each well and incubated at 37 °C for an additional 4h. Finally, the MTT solution was removed, and 200 μL of DMSO was added to each well. The absorbance was measured at 590 nm by using a spectrometer (Tecan). The IC50 values were calculated from the MTT viability data using the software CalcuSyn (Biosoft).
The test system of test [2] is MCF-7 (human breast cancer). The experiment in a line: MTT cell viability assay, MCF-7. The test is classed as cell-based.
Method: as §1, §2
For test [3], the system named is PC-3 (human prostate cancer). The experiment in a line: MTT cell viability assay, PC-3. The test is classed as cell-based. To be noted: 72 h.
Method: as §1, §2
Test [4] has as its system HEK-293 (human embryonic kidney). The experiment in a line: MTT cell viability assay, HEK-293. The format is cell-based.
Method: as §1, §2

Each structure is given as a SMILES string.

The term IC50 denotes the concentration at which inhibition is half-maximal. Low readings indicate greater potency in that assay, high ones weaker potency in that assay. Take `CCCCN1C(=O)/C(=N/c2ccccc2)c2ccccc21` [3b]: the concentration for half-maximal inhibition (IC50) in test [1] (Homo sapiens, HepG2, 72 h) was 43 ± 1.8 µM; in test [2] (Homo sapiens, MCF7, 72 h) it was 52.6 ± 3.1 µM; in test [3] (Homo sapiens), 58.1 ± 3.3 µM; in test [4] (Homo sapiens, HEK293, 72 h), 61.9 ± 0.6 µM.

For the compound `CCCCN1C(=O)/C(=N/c2c(C)cc(C)cc2C)c2ccccc21` [3c], the 50% inhibitory concentration (IC50) was determined as 3.9 ± 0.3 µM in test [1] (Homo sapiens, HepG2, 72 h); 27.2 ± 2.4 µM in test [2] (Homo sapiens, MCF7, 72 h); 58.4 ± 2 µM in test [3] (Homo sapiens); 26.9 ± 1.6 µM in test [4] (Homo sapiens, HEK293, 72 h).

As to `N.N.[Cl][Pt][Cl]` [cisplatin, reference compound], the concentration for half-maximal inhibition (IC50) was 22.2 ± 0.5 µM in test [1] (72 h), 20.8 ± 2.3 µM in test [2] (72 h), 18.5 ± 0.7 µM in test [3] and 10.7 ± 0.8 µM in test [4] (72 h).

Turning to `CCCCN1C(=O)C(=O)c2ccccc21` [compound 2, N-butylisatin], the IC50 was 226.5 ± 1.5 µM in test [1] (Homo sapiens, HepG2, 72 h); 100 ± 2.4 µM in test [2] (Homo sapiens, MCF7, 72 h); 58.2 ± 3.2 µM in test [3] (Homo sapiens); 127 ± 2.8 µM in test [4] (Homo sapiens, HEK293, 72 h).

Source of the values: paper PMC11064044, “Synthesis and Characterization of Piano-Stool Ruthenium(II)–Arene Complexes of Isatin Schiff Bases: Cytotoxicity and DNA Intercalation” (ACS Omega, 2024).
